For one experiment, the target named is T1, Leucine aminopeptidase (Plasmodium falciparum 3D7, UniProt Q8IL11).
T1 sequence (Q8IL11 whole entry): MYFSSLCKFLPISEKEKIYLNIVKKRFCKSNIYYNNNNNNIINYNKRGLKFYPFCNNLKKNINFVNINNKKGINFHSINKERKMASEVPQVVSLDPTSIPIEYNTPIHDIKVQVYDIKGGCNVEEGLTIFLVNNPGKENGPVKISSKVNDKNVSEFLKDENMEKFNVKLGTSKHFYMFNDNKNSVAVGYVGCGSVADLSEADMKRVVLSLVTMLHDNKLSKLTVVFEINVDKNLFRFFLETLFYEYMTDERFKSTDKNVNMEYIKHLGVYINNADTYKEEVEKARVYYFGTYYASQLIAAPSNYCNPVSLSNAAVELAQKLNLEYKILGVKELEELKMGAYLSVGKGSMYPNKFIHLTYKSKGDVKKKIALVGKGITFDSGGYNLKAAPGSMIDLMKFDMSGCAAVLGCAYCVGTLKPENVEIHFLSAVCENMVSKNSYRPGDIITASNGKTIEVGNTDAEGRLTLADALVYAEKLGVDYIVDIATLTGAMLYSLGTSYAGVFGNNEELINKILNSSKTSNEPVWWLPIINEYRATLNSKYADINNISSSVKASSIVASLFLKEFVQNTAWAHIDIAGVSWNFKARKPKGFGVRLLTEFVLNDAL
The experiment in a line: P. falciparum M17LAP inhibitors, primary screen, biochemical, fluorogenic H-Leu-NHMec substrate, 1536-well (AID 1619). It is filed as functional.

The target of experiment [1] is T2, Fatty acid synthase (Homo sapiens, UniProt P49327). Briefly: inhibition of human FAS-TE enzyme activity – biochemical, kinetic fluorescence intensity, dose response (AID 624326).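 Note: rate of fluorescence rise from hydrolysis of a fluorogenic O-methyl fluorescein ester substrate.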 It is filed as functional.
Experiment [2] addresses T2, Fatty acid synthase. The experiment in a line: inhibition of human FAS-TE enzyme activity – biochemical, endpoint fluorescence intensity, uHTS hits, dose response (AID 624327).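 Note: fluorescence from hydrolysis of an O-methyl fluorescein acyl ester substrate by the enzyme.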 It is filed as functional.
Experiment [3] addresses T3, Corticotropin-releasing factor receptor 2/Corticotropin-releasing factor-binding protein (Homo sapiens, UniProt P24387+Q13324).
T3 sequence (Q13324 whole entry): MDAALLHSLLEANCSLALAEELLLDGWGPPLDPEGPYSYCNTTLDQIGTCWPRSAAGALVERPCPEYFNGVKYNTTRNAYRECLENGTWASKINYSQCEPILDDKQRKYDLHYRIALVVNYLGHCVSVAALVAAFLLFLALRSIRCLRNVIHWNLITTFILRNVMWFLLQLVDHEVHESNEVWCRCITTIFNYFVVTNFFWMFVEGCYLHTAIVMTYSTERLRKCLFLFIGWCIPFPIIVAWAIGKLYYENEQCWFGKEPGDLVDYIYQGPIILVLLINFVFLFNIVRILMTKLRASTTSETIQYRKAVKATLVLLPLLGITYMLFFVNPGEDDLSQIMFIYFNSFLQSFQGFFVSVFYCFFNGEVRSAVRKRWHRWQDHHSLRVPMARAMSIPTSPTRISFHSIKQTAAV
T3 sequence (P24387 whole entry): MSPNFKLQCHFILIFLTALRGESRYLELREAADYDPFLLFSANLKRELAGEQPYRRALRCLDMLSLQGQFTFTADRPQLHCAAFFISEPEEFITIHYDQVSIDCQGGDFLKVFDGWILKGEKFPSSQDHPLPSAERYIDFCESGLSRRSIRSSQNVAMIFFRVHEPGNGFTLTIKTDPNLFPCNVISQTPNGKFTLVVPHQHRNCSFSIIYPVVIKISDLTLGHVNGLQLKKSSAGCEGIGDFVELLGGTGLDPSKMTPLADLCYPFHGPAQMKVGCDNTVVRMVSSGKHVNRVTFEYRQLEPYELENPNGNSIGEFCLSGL
Briefly: activators of CRF receptor 2 with binding protein – uHTS hits, confirmation (AID 602473). It is filed as functional. The note with it: read-out: EC50_Mean.

The target of experiment [4] is T3, Corticotropin-releasing factor receptor 2/Corticotropin-releasing factor-binding protein. The experiment in a line: Dose Response confirmation of uHTS hits for small molecule antagonists of the CRF-binding protein and CRF-R2 receptor complex. Format: functional. The conditions noted are these: read-out: IC50_Mean.
Experiment [5] deals with T4, Replicative DNA helicase DnaB (Mycobacterium tuberculosis, UniProt P9WMR3).
T4 sequence (P9WMR3 whole entry): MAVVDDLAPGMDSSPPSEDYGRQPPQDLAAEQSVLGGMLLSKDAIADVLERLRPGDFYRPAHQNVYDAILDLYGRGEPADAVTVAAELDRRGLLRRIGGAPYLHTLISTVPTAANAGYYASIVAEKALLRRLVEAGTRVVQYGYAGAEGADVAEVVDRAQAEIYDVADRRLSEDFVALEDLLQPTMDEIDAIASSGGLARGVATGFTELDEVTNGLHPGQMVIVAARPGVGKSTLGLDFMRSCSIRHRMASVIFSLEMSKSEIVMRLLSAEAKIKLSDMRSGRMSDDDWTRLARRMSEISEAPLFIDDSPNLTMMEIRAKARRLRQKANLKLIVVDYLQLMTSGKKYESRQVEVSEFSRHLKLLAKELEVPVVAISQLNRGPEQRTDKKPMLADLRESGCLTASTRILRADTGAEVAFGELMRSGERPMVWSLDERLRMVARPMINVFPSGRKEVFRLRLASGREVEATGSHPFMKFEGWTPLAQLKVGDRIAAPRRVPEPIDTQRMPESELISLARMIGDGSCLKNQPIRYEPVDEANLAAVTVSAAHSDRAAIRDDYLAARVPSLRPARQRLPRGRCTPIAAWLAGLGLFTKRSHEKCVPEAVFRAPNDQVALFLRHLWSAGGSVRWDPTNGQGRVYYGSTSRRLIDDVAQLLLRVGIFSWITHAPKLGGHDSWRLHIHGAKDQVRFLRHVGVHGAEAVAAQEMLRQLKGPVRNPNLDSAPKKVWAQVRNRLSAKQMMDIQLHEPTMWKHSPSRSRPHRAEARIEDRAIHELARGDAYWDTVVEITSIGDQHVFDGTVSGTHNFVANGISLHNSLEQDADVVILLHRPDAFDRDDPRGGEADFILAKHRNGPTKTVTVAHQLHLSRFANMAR
Briefly: DnaB intein splicing inhibitors, dose response, biochemical, cell-free fluorescence (AID 449749). It is filed as functional.

In a further experiment the target is T5, Protein RecA (Mycobacterium tuberculosis, UniProt P9WHJ3).
T5 sequence (P9WHJ3 whole entry): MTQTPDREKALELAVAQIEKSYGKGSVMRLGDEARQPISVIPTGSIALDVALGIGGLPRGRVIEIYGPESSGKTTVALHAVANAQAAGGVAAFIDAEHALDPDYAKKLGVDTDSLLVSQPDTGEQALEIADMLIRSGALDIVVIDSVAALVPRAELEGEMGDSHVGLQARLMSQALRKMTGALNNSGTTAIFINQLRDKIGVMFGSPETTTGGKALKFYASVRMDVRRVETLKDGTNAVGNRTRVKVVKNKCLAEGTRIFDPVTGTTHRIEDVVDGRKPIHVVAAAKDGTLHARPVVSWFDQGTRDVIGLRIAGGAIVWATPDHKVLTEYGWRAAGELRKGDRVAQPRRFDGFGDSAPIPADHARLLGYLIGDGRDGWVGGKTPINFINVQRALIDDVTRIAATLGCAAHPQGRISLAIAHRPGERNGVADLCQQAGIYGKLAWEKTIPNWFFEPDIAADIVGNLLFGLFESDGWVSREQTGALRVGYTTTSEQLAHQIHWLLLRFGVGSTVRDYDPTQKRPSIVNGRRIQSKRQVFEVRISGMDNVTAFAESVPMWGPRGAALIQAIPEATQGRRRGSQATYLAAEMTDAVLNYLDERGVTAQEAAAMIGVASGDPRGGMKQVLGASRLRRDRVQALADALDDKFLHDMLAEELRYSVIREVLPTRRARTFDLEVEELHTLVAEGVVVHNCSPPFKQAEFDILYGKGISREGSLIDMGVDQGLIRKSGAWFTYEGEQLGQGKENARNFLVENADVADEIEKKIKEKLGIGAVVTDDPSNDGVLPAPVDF
Briefly: Fluorescence Cell-Free Homogeneous Dose Retest to Identify Inhibitors of RecA-Intein Splicing Activity. [Related pubchem assays (depositor defined):AID2097, AID2223, AID489010, AID492950]. Format: functional.

Experiment [6] in a line: HIV-1 AD8 envelope cell-cell fusion blockers – cherry-pick, dose response (AID 652062).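 Note: luciferase signal from cell-cell fusion driven by HIV-1 clade B AD8 Env; potency is for inhibitors of fusion seen as a drop in luminescence.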 It is filed as functional, cell-based.
The next experiment addresses Paired box protein Pax-8 (Homo sapiens, UniProt Q06710). Briefly: PAX8 transcriptional activity inhibition in RMG-I – RMG-I cells, luciferase, cherry-pick, dose response (AID 687027).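 Note: luciferase reporter driven by Pax8 target thyroperoxidase promoter measured by SteadyGlo luminescence.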 Format: functional, cell-based.
A short description of experiment [7]: OVCAR-3 cell viability loss – plate reader, dry powder samples, PAX8 inhibitor project, dose response (AID 743044). It is filed as functional, cell-based.

Activity calls are given as the source filed them.

T2 sequence (P49327 whole entry): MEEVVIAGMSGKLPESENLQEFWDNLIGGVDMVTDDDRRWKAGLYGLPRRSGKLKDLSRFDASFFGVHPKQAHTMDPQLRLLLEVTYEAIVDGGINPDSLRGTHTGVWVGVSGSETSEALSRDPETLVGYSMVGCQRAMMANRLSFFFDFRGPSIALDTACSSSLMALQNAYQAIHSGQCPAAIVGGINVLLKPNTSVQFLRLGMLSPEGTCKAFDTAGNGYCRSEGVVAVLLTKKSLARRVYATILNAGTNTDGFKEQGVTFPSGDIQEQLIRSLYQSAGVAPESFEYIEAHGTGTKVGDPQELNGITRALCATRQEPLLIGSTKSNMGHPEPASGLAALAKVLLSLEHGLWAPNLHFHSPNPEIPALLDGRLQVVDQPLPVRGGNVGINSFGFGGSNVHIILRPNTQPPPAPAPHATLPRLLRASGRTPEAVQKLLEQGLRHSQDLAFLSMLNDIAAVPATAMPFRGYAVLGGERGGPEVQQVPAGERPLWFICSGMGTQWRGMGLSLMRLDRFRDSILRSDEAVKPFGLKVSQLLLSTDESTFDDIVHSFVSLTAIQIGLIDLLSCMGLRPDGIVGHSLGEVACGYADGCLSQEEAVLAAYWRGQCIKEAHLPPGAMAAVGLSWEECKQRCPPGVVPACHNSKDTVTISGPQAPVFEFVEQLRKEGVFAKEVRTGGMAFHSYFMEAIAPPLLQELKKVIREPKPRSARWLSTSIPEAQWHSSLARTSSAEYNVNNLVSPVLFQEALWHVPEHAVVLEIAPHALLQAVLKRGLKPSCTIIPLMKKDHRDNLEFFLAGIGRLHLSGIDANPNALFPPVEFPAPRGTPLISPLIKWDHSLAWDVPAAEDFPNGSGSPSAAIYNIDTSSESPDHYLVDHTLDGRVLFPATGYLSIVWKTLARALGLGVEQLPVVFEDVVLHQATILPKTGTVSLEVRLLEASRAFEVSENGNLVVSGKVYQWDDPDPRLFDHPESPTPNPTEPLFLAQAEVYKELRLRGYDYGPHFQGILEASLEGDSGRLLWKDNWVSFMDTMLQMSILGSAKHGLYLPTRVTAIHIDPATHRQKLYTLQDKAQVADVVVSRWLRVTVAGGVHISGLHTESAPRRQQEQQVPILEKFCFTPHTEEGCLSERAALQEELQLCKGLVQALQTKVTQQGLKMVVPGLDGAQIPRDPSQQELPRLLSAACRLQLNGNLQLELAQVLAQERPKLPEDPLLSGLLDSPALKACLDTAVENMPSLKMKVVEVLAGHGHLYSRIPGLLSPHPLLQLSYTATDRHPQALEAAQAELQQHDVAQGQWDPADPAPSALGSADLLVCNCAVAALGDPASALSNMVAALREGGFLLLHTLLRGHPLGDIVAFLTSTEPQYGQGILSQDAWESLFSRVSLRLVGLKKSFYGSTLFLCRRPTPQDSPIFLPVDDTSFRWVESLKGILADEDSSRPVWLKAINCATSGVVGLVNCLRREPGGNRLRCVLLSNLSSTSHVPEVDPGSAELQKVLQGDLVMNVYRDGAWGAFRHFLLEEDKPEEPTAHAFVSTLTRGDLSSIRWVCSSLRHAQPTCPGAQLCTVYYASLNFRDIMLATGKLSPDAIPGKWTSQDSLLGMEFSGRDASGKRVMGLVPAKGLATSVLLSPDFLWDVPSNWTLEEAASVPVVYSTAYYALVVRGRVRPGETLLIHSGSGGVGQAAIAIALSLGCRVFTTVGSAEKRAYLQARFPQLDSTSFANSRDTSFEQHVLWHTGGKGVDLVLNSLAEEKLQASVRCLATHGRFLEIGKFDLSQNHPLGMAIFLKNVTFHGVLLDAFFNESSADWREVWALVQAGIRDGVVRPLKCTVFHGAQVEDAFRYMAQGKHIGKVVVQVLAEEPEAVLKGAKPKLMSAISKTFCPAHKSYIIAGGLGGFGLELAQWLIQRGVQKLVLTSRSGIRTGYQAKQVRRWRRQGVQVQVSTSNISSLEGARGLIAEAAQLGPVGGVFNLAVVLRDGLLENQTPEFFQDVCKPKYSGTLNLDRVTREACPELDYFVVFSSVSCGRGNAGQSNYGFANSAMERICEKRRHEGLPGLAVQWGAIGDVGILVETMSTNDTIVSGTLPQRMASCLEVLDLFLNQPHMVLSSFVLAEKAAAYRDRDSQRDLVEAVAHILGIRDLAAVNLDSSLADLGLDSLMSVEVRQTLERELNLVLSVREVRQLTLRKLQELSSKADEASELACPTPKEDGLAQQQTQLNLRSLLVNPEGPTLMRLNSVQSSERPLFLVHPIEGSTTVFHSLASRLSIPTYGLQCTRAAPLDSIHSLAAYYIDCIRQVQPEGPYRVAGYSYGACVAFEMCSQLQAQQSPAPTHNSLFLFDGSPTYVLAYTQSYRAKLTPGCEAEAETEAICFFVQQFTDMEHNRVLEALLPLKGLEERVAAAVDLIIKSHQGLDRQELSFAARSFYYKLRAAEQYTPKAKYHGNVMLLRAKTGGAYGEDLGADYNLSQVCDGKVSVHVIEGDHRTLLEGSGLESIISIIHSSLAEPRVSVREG
Chain of Paired box protein Pax-8 (Q06710 whole entry): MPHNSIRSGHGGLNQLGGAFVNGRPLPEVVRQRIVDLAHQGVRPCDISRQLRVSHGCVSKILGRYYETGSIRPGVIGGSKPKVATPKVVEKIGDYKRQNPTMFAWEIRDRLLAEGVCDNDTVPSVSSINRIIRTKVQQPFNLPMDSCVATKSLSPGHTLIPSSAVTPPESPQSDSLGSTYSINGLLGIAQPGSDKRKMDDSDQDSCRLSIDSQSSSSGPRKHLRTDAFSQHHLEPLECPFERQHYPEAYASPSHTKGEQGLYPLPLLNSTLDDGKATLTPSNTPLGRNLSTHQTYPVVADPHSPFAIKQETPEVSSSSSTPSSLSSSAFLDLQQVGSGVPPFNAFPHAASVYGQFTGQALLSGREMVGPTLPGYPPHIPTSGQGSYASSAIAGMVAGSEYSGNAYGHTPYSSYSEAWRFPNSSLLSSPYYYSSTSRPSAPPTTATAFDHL

With `CC(C)C(=O)Nc1nnc(SCC(=O)Nc2ccc3c(c2)OCCO3)s1`, the IC50 at Leucine aminopeptidase is 18.9 µM (active).
For the molecule `COc1ccc(/C=C(/NC(=O)c2ccc([N+](=O)[O-])cc2)C(=O)NC(C)(C)C)cc1`, the IC50 was 2.56 µM (active) on Fatty acid synthase [1] and 3.45 µM (active) on Fatty acid synthase [2].
`O=C(O)CC(Cc1ccccc1)C(=O)Nc1ccc([N+](=O)[O-])cc1` (configuration not stated): the IC50 at Leucine aminopeptidase was 15.7 µM (active).
Consider `O=C(NC(=S)Nc1ccccc1)c1cc([N+](=O)[O-])ccc1N1CCOCC1`, for which the figures for the IC50 at Fatty acid synthase [1] and at Fatty acid synthase [2] were 8.19 µM (active) and 17.2 µM (active), respectively.
In the case of `N#Cc1c(NC(=O)Cn2cnc3ccccc3c2=O)oc(-c2ccccc2)c1-c1ccccc1`, at Leucine aminopeptidase, the IC50 was 1.47 µM (active).
On to `COc1ccc(C(=O)N/C(=C\c2cn(S(=O)(=O)N(C)C)c3ccccc23)C(=O)NCCCN2CCOCC2)cc1`, for which the IC50 was 7.83 µM (active) at Fatty acid synthase [1] and 8.48 µM (active) at Fatty acid synthase [2].
`CN1C[C@H](C(=O)N[C@]2(C)O[C@@]3(O)[C@@H]4CCCN4C(=O)[C@H](Cc4ccccc4)N3C2=O)CC2c3cccc4[nH]cc(c34)C[C@H]21` (some centres not stated): the IC50 on Fatty acid synthase [1] is 8.09 µM (active); on Fatty acid synthase [2], 10.4 µM (active).
Turning to `CCOc1ccc(NC(=O)Cc2ccccc2)c([N+](=O)[O-])c1`, the IC50 at Leucine aminopeptidase was 2.92 µM (active).
With `O=C(CN1C(=O)c2ccccc2C1=O)NCC1COc2ccccc2O1` (configuration not stated), the IC50 at Leucine aminopeptidase was 15.6 µM (active).
`CCCCCCn1c(=O)c(F)cn(Cc2ccc(OC)c([N+](=O)[O-])c2)c1=O`: the EC50 in experiment [3] is > 53 µM (inactive). Further, the results for the IC50 (on Fatty acid synthase [1]; at Fatty acid synthase [2]; in experiment [4]) were 11.3 µM (active), 10.2 µM (active) and > 47.1 µM (inactive), respectively.
For the molecule `CCc1cccc(NC(=O)CSCc2cc(O)[nH]n2)c1`, the concentration at half-maximal activity (AC50) – broadly, the concentration at which the activity in the assay is half-maximal – in experiment [5] was 3.37 µM (active). The EC50 at Protein RecA is 2.37 µM (active). The IC50 at Leucine aminopeptidase is 25.9 µM (active).
On to `N#Cc1c(C(F)(F)F)cc(-c2cccs2)nc1SC(C(=O)O)c1ccccc1` (configuration not stated), for which the values for the IC50 at Fatty acid synthase [1] and on Fatty acid synthase [2] were 5.81 µM (active) and 4.45 µM (active), respectively.
Turning to `CC(=O)NS(=O)(=O)c1ccc(/N=c2\ssc3c2-c2cc(C)c(C)cc2NC3(C)C)cc1`, the IC50 at Leucine aminopeptidase is 3.72 µM (active).
In the case of `O=C1COc2ccc(-c3cs/c(=N\c4ccc(OC(F)F)cc4)n3CC3CCCO3)cc2N1` (configuration not stated), in [6], the concentration at half-maximal activity (AC50) was 18.6 µM (active).
With `C[C@@H]1CN([C@H](C)CO)C(=O)c2cc(NC(=O)Nc3ccc(F)cc3)ccc2O[C@@H](C)CCCCO[C@H]1CN(C)S(=O)(=O)c1ccccc1`, the results for the AC50 (on Paired box protein Pax-8; in experiment [7]) were 4.82 µM (active) and 35.3 µM (active), respectively.
On to `CN(C)c1ccc(/C=N/NC(=O)c2nonc2N)cc1[N+](=O)[O-]`, for which the IC50 at Leucine aminopeptidase was 56.1 µM (active).

These data come from ChEMBL document CHEMBL1201862, “PubChem BioAssay data set” (2004).
